Source: patent publication US5770742A, “Thiophene-tryptamine derivatives” (Allelix Biopharmaceuticals Inc., priority 1996, dated 1998)
pEC50: −log10 of the molar value. Like-named read-outs stand apart in the source and are kept apart here.

Assays:
[1] = biological target: T1, 5-HT1D receptor (Oryctolagus cuniculus, UniProt P49144); test: Agonist assay, contraction of rabbit isolated saphenous vein; set-up: species or system rabbit (male New Zealand White)
T1 construct: Ring segments of the vein (4-5 mm in length) were cut and the endothelium gently removed; from tissue; host or cells: rabbit saphenous vein rings, endothelium removed
Protocol: Tissues were obtained from male New Zealand White rabbits (c. 3-4 kg) which were sacrificed by an overdose of pentobarbitol. The saphenous veins from both the left and right side were cleaned of fat and connective tissue and placed in Krebs solution (118 mM NaCl, 11 mM glucose, 25 mM NaHCO3, 4,7 mM KCl, 2.5 mM CaCl2 2H2 O, 1.2 mM KH2 PO4 and 1.2 mM MgSO4 7H2 O). Ring segments of the vein (4-5 mm in length) were cut and the endothelium gently removed. The segments were mounted in 10 mL baths containing Krebs buffer and were constantly aerated with 95% oxygen/5% carbon dioxide and maintained at 37° C. and pH 7.4 in order to record the isometric tension. A resting tension of 2.5 g was applied and the tissues allowed to equilibrate for 90 minutes, with washing every 15-20 minutes. After the equilibrium period, the rings were depolarized by addition of two aliquots of KCl (80 mM final concentration)separated by a 20 minute washing period. The tissues were then exposed to prazosin, idazoxan and indomethacin (all 1 μM in final concentration) for 30 minutes in order to exclude the actions of α1 - and α2 -adrenergic receptors and prostaglandin receptors respectively. […] Responses were calculated as a percentage of the maximal contraction evoked by 80 mM KCl. Only one compound was tested per preparation.
EC50 represents the concentration of the compound which causes 50% of the maximum contraction effected by it.

[2] = biological target: T2, 5-HT1Dα (Homo sapiens, UniProt P28221); test: Binding affinity, inhibition of 3H-5-HT binding, 5-HT1Dα; details: 1 h, 100 nm, 60 minute at 22° C., mean of triplicate determinations
T2 construct: expressed in transfected cells
Protocol: (§1) Compounds of the previous examples, as well as reference compounds, were evaluated for binding affinity using cell types receptive specifically to 5-HT1Dα and 5-HT1Dβ ligands. The assay protocol generally entailed the incubation of membranes prepared from cells expressing the 1Dβ or 1Dα sub-type of 5-HT receptors, with ^3 H-5-HT. The test compound was incubated at 100 nm concentration with the radioligand and the membrane homogenates prepared from the recombinant cells. After a 60 minute incubation at 22° C., the incubation was terminated by vacuum filtration. The filters were washed with buffer and counted for radioactivity using liquid scintillation spectrometry. The affinity of the test compound for the 5-HT1Dβ or 5-HT1Dα receptor estimated by its inhibition of binding of the radioligand to the receptor. The result is expressed desciptively as percent inhibition of binding. Each value is the mean of triplicate determinations. For comparison, sumatriptan was also evaluated. The results are presented in Table 2 below, with reference to the compound numbers of Table 1 and the specific synthesis examples given above.

[3] = biological target: T3, 5-HT1Dβ (Homo sapiens, UniProt P28222); test: Binding affinity, inhibition of 3H-5-HT binding, 5-HT1Dβ; details: 1 h, 100 nm, 60 minute at 22° C., mean of triplicate determinations
T3 construct: expressed in transfected cells
Protocol: as §1, with “determinations.” for “determinations. For comparison, sumatriptan was also evaluated. The results are presented in Table 2 below, with reference to the compound numbers of Table 1 and the specific synthesis examples given above.”

[4] = system: 5-HT1 receptor; details: WO 93/21178, Example 67; cited from earlier work
[5] = system: other 5-HT receptors; details: prior art; cited from earlier work
[6] = system: 5-HT1F; details: prior art; cited from earlier work
[7] = system: 5-HT1D; details: prior art; cited from earlier work
[8] = rabbit isolated saphenous vein, 50% of the maximum contraction effected by the compound, with prazosin, idazoxan, indomethacin 1 μM, read-out: EC50

T2 sequence (P28221 whole entry): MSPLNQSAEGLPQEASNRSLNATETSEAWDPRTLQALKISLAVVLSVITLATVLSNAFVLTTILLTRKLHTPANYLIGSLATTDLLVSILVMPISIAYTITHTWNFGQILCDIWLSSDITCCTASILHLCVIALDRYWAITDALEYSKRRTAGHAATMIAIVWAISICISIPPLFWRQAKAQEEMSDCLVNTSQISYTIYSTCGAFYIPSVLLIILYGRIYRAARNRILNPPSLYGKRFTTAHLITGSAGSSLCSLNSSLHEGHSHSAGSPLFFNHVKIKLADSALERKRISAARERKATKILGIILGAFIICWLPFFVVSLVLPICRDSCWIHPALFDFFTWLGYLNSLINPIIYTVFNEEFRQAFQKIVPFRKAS
T1 sequence (P49144 whole entry): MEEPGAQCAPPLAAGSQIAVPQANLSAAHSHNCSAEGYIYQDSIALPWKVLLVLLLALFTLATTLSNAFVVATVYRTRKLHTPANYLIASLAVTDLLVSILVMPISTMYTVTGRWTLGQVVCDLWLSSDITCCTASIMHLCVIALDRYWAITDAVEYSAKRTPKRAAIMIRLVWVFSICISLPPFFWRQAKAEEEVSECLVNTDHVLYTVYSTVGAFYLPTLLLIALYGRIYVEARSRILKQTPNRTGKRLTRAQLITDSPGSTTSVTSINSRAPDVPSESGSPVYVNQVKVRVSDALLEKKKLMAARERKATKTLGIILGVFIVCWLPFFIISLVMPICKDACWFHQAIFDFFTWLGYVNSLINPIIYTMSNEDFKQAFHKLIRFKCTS
T3 sequence (P28222 whole entry): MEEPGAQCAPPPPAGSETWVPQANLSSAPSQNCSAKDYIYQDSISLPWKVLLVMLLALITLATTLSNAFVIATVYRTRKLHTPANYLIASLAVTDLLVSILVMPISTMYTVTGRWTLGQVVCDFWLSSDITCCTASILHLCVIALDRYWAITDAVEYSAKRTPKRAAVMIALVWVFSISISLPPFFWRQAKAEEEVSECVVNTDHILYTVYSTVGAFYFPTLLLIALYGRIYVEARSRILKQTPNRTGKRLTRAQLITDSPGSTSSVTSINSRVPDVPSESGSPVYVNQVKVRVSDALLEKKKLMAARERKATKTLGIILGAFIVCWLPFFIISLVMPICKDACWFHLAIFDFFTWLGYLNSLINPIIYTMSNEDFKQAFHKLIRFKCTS

Structure (SMILES)	pEC50 [1, 8]	inhibition at 0.1 µM [2] [%]	inhibition at 0.1 µM [3] [%]	further results
CN1CCC(c2c[nH]c3ccc(-c4cccs4)cc23)C1 (racemic) [Compound 8, 3-(N-Methylpyrrolidin-3-yl)-5-(2-thienyl)-1H-indole]	5.76	95	68	
CN(C)CC(O)c1c[nH]c2ccc(-c3ccsc3)cc12 (racemic) [Compound 10, (±)-3-(2-N,N-Dimethylamino-1-hydroxylethyl)-5-(3-thienyl)-1H-indole]	6.05	93	42	
CN1CCC[C@@H]1Cc1c[nH]c2ccc(-c3ccc(C(N)=O)s3)cc12 [5-(5-carbamoyl-2-thienyl)-3-(1-methylpyrrolidin-2(R)-ylmethyl)-1H-indole]				5-HT1 receptor activity [4]: some 5-HT1 receptor activity
CN1CCC[C@@H]1Cc1c[nH]c2ccc(-c3cccs3)cc12 [Compound 1, 3-(N-Methylpyrrolidin-2R-ylmethyl)-5-(2-thienyl)-1H-indole]	6.92	98	84	
CN1CCC[C@@H]1Cc1c[nH]c2ccc(-c3ccsc3)cc12 [Compound 2, 3-(N-Methylpyrrolidin-2R-ylmethyl)-5-(3-thienyl)-1H-indole]	6.85	99	83	
CN(C)CCc1c[nH]c2ccc(-c3ccsc3)cc12 [Compound 3, 3-(2-N,N-Dimethylaminoethyl)-5-(3-thienyl)-1H-indole]	6.36	98	78	
CN(C)CCc1c[nH]c2ccc(-c3cccs3)cc12 [Compound 4, 3-(2-N,N-Dimethylaminoethyl)-5-(2-thienyl)-1H-indole]	6.09	97	72	
CN(C)CCc1c[nH]c2ccc(-c3ccc(CO)s3)cc12 [Compound 5, 3-(2-N,N-Dimethylaminoethyl)-5-(5-hydroxymethylthienyl-2-yl)-1H-indole]		96	77	
CN1CCC[C@H]1Cc1c[nH]c2ccc(-c3cccs3)cc12 [Compound 6, 3-(N-Methylpyrrolidin-2S-ylmethyl)-5-(2-thienyl)-1H-indole]	6.06	96	47	
NCCc1c[nH]c2ccc(-c3cccs3)cc12 [Compound 7, 3-(2-Aminoethyl)-5-(2-thienyl)-1H-indole]	6.22	98	78	
CN(C)CCc1c[nH]c2ccc(-c3ccc(Cl)s3)cc12 [Compound 9, 5-(5-Chlorothien-2-yl)-3-(2-N,N-dimethylaminoethyl)-1H-indole]		97	83	
c1csc(-c2ccc3[nH]cc(CCN4CCCC4)c3c2)c1 [Compound 11, 3-(2-Pyrrolidinylethyl)-5-(2-thienyl)-1H-indole]		84	14	pEC50 [1]: 5.63; Emax ([1]; rabbit isolated saphenous vein, maximum contraction vs KCl (80 mM), read-out: agonist type (maximum contraction relative to 80 mM KCl)): < 60%
Cc1ccc(-c2ccc3[nH]cc(CCN(C)C)c3c2)s1 [Compound 12, 3-(2-N,N-Dimethylaminoethyl)-5-(5-methylthien-2-yl)-1H-indole]		87	52	
CNS(=O)(=O)Cc1ccc2[nH]cc(CCN(C)C)c2c1 [Sumatriptan]		95		binding to other 5-HT receptors [5]: substantial exclusion of other 5-HT receptors; binding affinity for 5-HT1F [6]: high affinity; binding affinity for 5-HT1D [7]: high affinity
